Legend:
AMPA receptor = assay: Patch clamp whole cell electrophysiology: glutamate-evoked steady state current in cultured hippocampal neurons; type: cell-based, Sprague-Dawley rats; conditions: 10 μM compound in extracellular solution; glutamate 0.5 mM; holding potential −60 mV; cultured rat hippocampal neurons
Excerpt: The benzoxazepines of the invention are AMPA receptor stimulators, as can be determined by an increase in steady state current induced by application of glutamate in a conventional whole cell patch clamp method when a benzoxazepine of the invention is present (see Example 30 and Table I). The compounds may be used in the treatment of neurological and psychiatric diseases where an enhancement of synaptic responses mediated by AMPA receptors is required, such as neuro-degenerative disorders, cognitive or memory dysfunction, memory and learning disorders such as can result from ageing, attention disorder, trauma, stroke, epilepsy, Alzheimer's disease, depression, schizophrenia, psychotic disorders, anxiety, sexual dysfunctions, autism, or a disorder or disease resulting from neurotic agents or substance abuse, and alcohol intoxication.
Hippocampal neurons were prepared from embryonic or 1-3 day old Sprague-Dawley rats which were decapitated and the heads immediately placed in ice cold HBS (HEPES Buffered Solution: 130 mM NaCl, 5.4 mM KCl, 10 mM HEPES, 1.0 mM MgCl2, 1.8 CaCl2, 25 mM glucose, adjusted to pH 7.4). The whole brain was excised and placed on pre-sterilised filter paper, soaked in HBS and the cerebellum was removed. The brain was chopped and an enzyme solution (0.5 mg/ml protease X and 0.5 mg/ml protease in HBS) was added and subsequently left for 40 minutes at room temperature to digest before trituration. Cells were resuspended and then counted to give a final concentration of 1.5×10^8 per ml. Cells were aliquoted onto poly-D-lysine- and Matrigel®-treated coverslips and left to incubate at 37° C. for 1-2 hours. When incubation was complete, 1 ml of growth medium was added to each well containing a coverslip and the cells were returned to the incubator. After 3-5 days the mitotic inhibitor cytosine arabinoside (5 μM) was added and the cells returned to the incubator until required.
The whole cell configuration of the patch clamp technique (Hamill et al., Pflũgers Arch. 1981, 39, 85-100) was used to measure glutamate-evoked currents from postnatal hippocampal neurons maintained in culture for 4-7 days. A glass coverslip containing the culture was transferred to the recording chamber (Warner Instrument Corp., Hamden, Conn.) mounted on the stage of an inverted microscope (Nikon, Kingston, UK). The recording chamber contained 1-2 ml extracellular solution (145 mM NaCl, 5.4 mM KCl, 10 mM HEPES, 0.8 mM MgCl2, 1.8 CaCl2, 10 mM glucose and 30 mM sucrose, adjusted to pH 7.4 with 1M NaOH) and was constantly perfused at a rate of 1 ml/min. Recordings were performed at room temperature (20-22° C.) using an Axopatch 200B amplifier (Axon Instruments Ltd., Foster City, Calif.). Data acquisition and analysis was performed using Signal software (Cambridge electronic Design Ltd., Cambridge, UK). Pipettes were manufactured from GC120F-10 glass (Harvard Apparatus, Edenbridge UK) using a model P-87 electrode puller (Sutter Instruments Co., Novarto, Calif.). The patch electrodes had typical resistances of between 3-5 MΩ when filled with intracellular solution (140 mM potassium gluconate, 20 mM HEPES, 1.1 mM EGTA, 5 mM phosphocreatine, 3 mM ATP, 0.3 mM GTP, 0.1 mM CaCl2, 5 mM MgCl2, adjusted to pH 7.4 with 1M KOH).
Cells were voltage clamped at a holding potential of −60 mV and glutamate (0.5 mM) was applied using a 12 channel semi-rapid drug application device (DAD-12. Digitimer Ltd., Welwyn Garden City, UK). The agonist glutamate was applied for 1 s every 30 s. […] Between applications saline flowed to clear any dead volume in the system. For each application steady-state currents were plotted from the difference in baseline and steady state current and averaged over 300 ms.
Two solutions of the compound in extracellular solution were made up, one with glutamate and one without. The protocol was: 10 second application of compound, 1 second application of compound+glutamate and then 10 second wash with saline, then a 10 second delay. […]

[1] = Inhibition of amphetamine-induced hyperlocomotion; type: in vivo; conditions: mice; sc, 30 minutes before 1.5 mg/kg d-amphetamine sulphate sc; measured for 60 minutes
Experimental: Mice were injected sc with drug or vehicle control. 30 Minutes later mice were injected sc with 1.5 mg/kg d-amphetamine sulphate or saline and immediately placed in infra red locomotor boxes where locomotor activity (long duration beam breaks of two adjacent beams) and stereotypic behaviour (repetitive short-duration beam breaks) were measured for a period of 60 minutes. The experiment was analysed using a 3-Way ANOVA with experimental session, infra red locomotor boxes and treatment as factors, and in the case of treatment, significant effects were followed up using a Tukey (HSD) test.

[2] = Differential Reinforcement of Low Rates of Responding, 72 Seconds (DRL72); type: in vivo; conditions: rats; intraperitoneal route 30 minutes before the test session
Experimental: Rats are pretrained in a standard operant chamber to perform a DRL72 procedure according to Andrews et al (Andrews J S, Jansen J H M, Linders S, Princen A, Drinkenburg W H I M, Coenders C J H and Vossen J H M (1994). Effects of imipramine and mirtazapine on operant performance in rats. Drug Development Research, 32:58-66). The test session lasts for 60 minutes with no limit to the number of trials. Each trial begins with the stimulus light on above the active lever. A response on the lever only results in delivery of a pellet if 72 seconds has elapsed. A response on the lever before 72 seconds has elapsed resets the timer and is not rewarded. The number of pellets earned and the number of lever presses is recorded and used to calculate an efficiency score. Test compounds are administered via the intraperitoneal route 30 minutes before the start of the test session. Antidepressants increase the number of pellets earned and decrease the number of lever presses (Andrews et al, 1994).

Structure (SMILES)	% Increase In steady state current at 10 μM (AMPA receptor) [%]	other results
O=C1c2ccccc2OC[C@H]2CCCN12 [(R)-2,3,11,11a-tetrahydro-1H,5H-pyrrolo[2,1-c][1,4]benzoxazepine-5-one, reference compound]	24	–
O=C1c2ccccc2OC[C@@H]2CCCN12 [(S)-2,3,11,11a-tetrahydro-1H,5H-pyrrolo[2,1-c][1,4]benzoxazepine-5-one, reference compound]	53	antipsychotic like activity (inhibited amphetamine induced hyperlocomotion) [1]: antipsychotic like activity
O=C1c2cc(F)ccc2OC[C@H]2CCCN12 [Example 1, (R)-7-Fluoro-2,3,11,11a-tetrahydro-1H,5H-pyrrolo[2,1-c][1,4]benzoxazepine-5-one]	17	–
O=C1c2cc(F)ccc2OC[C@@H]2CCCN12 [Example 2, (S)-7-Fluoro-2,3,11,11a-tetrahydro-1H,5H-pyrrolo[2,1-c][1,4]benzoxazepine-5-one]	19	–
O=C1c2cccc(F)c2OC[C@H]2CCCN12 [Example 3A, (R)-9-Fluoro-2,3,11,11a-tetrahydro-1H,5H-pyrrolo[2,1c][1,4]benzoxazepine-5-one]	23	antipsychotic like activity (inhibited amphetamine induced hyperlocomotion) [1]: antipsychotic like activity
O=C1c2cccc(F)c2OC[C@@H]2CCCN12 [Example 3B, (S)-9-Fluoro-2,3,11,11a-tetrahydro-1H,5H-pyrrolo[2,1-c][1,4]benzoxazepine-5-one]	20	antidepressant like profile in DRL72 [2]: antidepressant like profile
O=C1c2ccc(Cl)cc2OC[C@H]2CCCN12 [Example 4, (R)-8-chloro-2,3,11,11a-tetrahydro-1H,5H-pyrrolo[2,1-c][1,4]benzoxazepine-5-one]	–	melting point: 92 to 94 °C
O=C1c2ccc(F)cc2OC[C@@H]2CCCN12 [Example 5, (S)-8-fluoro-2,3,11,11a-tetrahydro-1H,5H-pyrrolo[2,1-c][1,4]benzoxazepine-5-one]	–	melting point: 75 to 76 °C
O=C1c2cccc(Cl)c2OC[C@@H]2CCCN12 [Example 8, (S)-9-Chloro-2,3,11,11a-tetrahydro-1H,5H-pyrrolo[2,1-c][1,4]benzoxazepine-5-one]	–	melting point: 89 to 90 °C
O=S1(=O)c2ccccc2OC[C@@H]2CCCN21 [Example 10, (S)-2,3,11,11,a-tetrahydro-1H,5H-pyrrolo[2,1-c][5,1,4]benzthiaoxazepine-5-dioxide]	7	–
COc1ccc2c(c1)OC[C@@H]1CCCN1C2=O [Example 11, (S)-8-Methoxy-2,3,11,11a-tetrahydro-1H,5H-pyrrolo[2,1-c][1,4]benzoxazepine-5-one]	21	–
CC(=O)Nc1ccc2c(c1)C(=O)N1CCC[C@H]1CO2 [Example 14, (S)-N-(2,3,11,11a-tetrahydro-5-oxo-1H,5H-pyrrolo[2,1-a][1,4]benzoxazepin-7-yl)-acetamide]	49	–
O=C(c1ccc2c(c1)C(=O)N1CCC[C@H]1CO2)N1CCCCC1 [Example 15, (S)-7-(Piperidinocarbonyl)-2,3,11,11a-tetrahydro-1H,5H-pyrrolo[2,1-c][1,4]benzoxazepine-5]	–	melting point: 140 to 140.5 °C
O=C(c1ccc2c(c1)C(=O)N1CCC[C@H]1CO2)N1CCOCC1 [Example 16A, (S)-7-(morpholinocarbonyl)-2,3,11,11a-tetrahydro-1H,5H-pyrrolo[2,1-c][1,4]-benzoxazepine-5-one]	24	–
NC(=O)c1ccc2c(c1)C(=O)N1CCC[C@H]1CO2 [Example 17A, (S)-7-(aminocarbonyl)-2,3,11,11a-tetrahydro-1H,5H-pyrrolo[2,1-c][1,4]benzoxazeline-5-one]	8	–
N#Cc1ccc2c(c1)C(=O)N1CCC[C@@H]1CO2 [Example 19, (R)-7-Cyano-2,3,11,11a-tetrahydro-1H5H-pyrrolo[2,1-c][1,4]benzoxazepine-5-one]	–	melting point: 164 to 165 °C
CC[C@H]1Oc2ccccc2C(=O)N2CCC[C@@H]12 [Example 20A, (11R, 11aS)-11-Ethyl-2,3,11,11a-tetrahydro-1H,5H-pyrrolo[2,1-c][1,4]benzoxazepine-5-one]	31	–
CC[C@@H]1Oc2ccccc2C(=O)N2CCC[C@@H]12 [Example 20B, (11S. 11aS)-11-Ethyl-2,3,11,11a-tetrahydro-1H,5H-pyrrolo[2,1-c][1,4]benzoxazepine-5-one]	28	–
O=C1c2ccccc2OCC2COCCN12 (stereo not drawn) [Example 22, 6,6a-Dihydro-12H-Morpholino[3,4-c][1,4]benzoxazepin-12-one]	31	–
O=C1c2ccccc2OC[C@@H]2CCN12 [Example 23, (S)-1,2,10,10a-Tetrahydroazetidinyl[2,1-c][1,4]benzoxazepin-4-one]	16	–
CC1(C)COC2COc3ccccc3C(=O)N21 (stereo not drawn) [Example 24, 2,11,11a-Trihydro-3,3dimethyloxazolidinyl[2,1-c][1,4]-benzoxazepin-5-one]	18	–
O=C1c2ccccc2OC[C@@H]2C[C@@H](O)CN12 [Example 25, (2R,11aS)-2-Hydroxy-2,3,11,11a-tetrahydro-1H,5H-pyrrolo[2,1-c][1,4]benzoxazepine-5-one]	31	–
O=C1c2ccccc2OC[C@@H]2C[C@H](F)CN12 [Example 26, (2S,11aS)2-Fluoro-23,11,11a-tetrahydro-1H,5H-pyrrolo[2,1-c][1,4]benzoxazepine-5-one]	24	–
O=C1c2ccccc2OC[C@@H]2CC(F)(F)CN12 [Example 28, (2S)-2,2-Difluoro-2,3,11,11a-tetrahydro-1H,5H-pyrrolo[2,1-c][1,4]benzoxazepine-5-one]	9	–
